Test results from patent US4948807A, “Phenyl carbamates” (priority 1985, dated 1990).
Like-named read-outs stand apart in the source and are kept apart here.

Assays:
[1] = in vivo; conditions: for absorption from the gastro-intestinal tract compared with physostigmine: from oral versus s.c. LD50; for protection by atropine against lethality: atropine pretreatment; for selectivity ratio / LD50 at 3 h: mouse, in vivo
Procedure: Mice were given one of at least three different doses of each compound, orally or subcutaneously, a minimum of 10 mice allotted to each dose. The number of animals which died at each dose within 3 hours was determined.
This experiment was repeated after the animals had been pretreated with atropine sulphate, which blocks both peripheral and central muscarinic receptors.
What is important is the safety of the drugs and the presence and severity of side effects that may occur at therapeutic doses. A commonly-used measure of drug safety is the therapeutic index--or LD50 /ED50 [formula]
It is assumed that the therapeutic effect of these anticholinesterase agents results from an elevation of brain cholinergic activity. This in turn, should be related to the degree of inhibition of acetylcholinesterase. For the purpose of the computation of the denominator of the therapeutic ratio, there is used the dose of drug that inhibits the activity of acetylcholinesterase by 50%. […] The numerator is the dose found to kill 50% of the animals within […] of a subcutaneous injection.

[2] = molecular target: T1, acetylcholinesterase (Mus musculus, UniProt P21836); assay: biochemical; assay type: biochemical
T1 construct: A solubilized preparation of acetylcholinesterase was prepared from mouse whole brain (minus cerebellum); from tissue; host or cells: mouse whole brain (minus cerebellum), membrane pellet solubilized with 1% Triton
T1 sequence (P21836 32-614): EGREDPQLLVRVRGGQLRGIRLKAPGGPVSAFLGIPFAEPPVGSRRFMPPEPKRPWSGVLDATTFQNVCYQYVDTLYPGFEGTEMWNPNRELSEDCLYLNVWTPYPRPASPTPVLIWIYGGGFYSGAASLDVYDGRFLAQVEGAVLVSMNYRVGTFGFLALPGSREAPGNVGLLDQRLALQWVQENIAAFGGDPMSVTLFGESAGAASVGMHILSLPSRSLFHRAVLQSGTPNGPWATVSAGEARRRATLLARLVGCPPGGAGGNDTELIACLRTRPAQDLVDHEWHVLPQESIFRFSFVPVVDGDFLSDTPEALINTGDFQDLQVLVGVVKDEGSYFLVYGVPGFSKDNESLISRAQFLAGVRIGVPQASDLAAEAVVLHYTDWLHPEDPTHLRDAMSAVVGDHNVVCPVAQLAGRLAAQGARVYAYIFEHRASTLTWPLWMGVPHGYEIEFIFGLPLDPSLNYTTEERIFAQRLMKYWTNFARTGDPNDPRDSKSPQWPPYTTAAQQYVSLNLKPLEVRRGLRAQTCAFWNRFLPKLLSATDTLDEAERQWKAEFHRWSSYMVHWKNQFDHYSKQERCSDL
Procedure: A solubilized preparation of acetylcholinesterase was prepared from mouse whole brain (minus cerebellum). The brain was homogenized with (100 mg/ml) phosphate buffer; pH 8.0, centrifuged, the supernatant discarded, and the pellet mixed with a similar volume as above of buffer pH 8.0 plus 1% Triton; mixed, centrifuged and the supernatant which contained most of the solubilized enzyme, was used for the subsequent determinations of anticholinesterase activity.
The activity of the enzyme (rate of hydrolysis of substrate, acetylthiocholine) was measured using at least 4 different concentrations of substrate, and at least 3 different concentrations of each inhibitor. The enzyme was incubated with inhibitor for periods ranging for 2-180 mins. at 37° C., substrate was then added, and its rate of hydrolysis measured by the spectrophotometric method of Ellman et al. (1961).

[3] = system: brain acetylcholinesterase; conditions: for Relative potency to physostigmine after oral administration / % cholinesterase inhibition 3 hours after s.c. administration / Relative potency to physostigmine after subcut. (s.c.) administration: mouse brain; for Relative potency to physostigmine after oral administration / Relative potency to physostigmine after subcut. (s.c.) administration: physostigmine = 100; for relative in vivo activity compared to physostigmine versus in vitro data: comparison of Table 1 with Table 2
Procedure: The effect of each compound on brain acetylcholinesterase in vivo was measured, after subcutaneous or oral administration to mice. Animals were sacrificed, at different times ranging from 0.25-8 hours after drug administration. The brain was rapidly removed, and the enzyme acetylcholinesterase extracted and solubilized with 0.1% Triton, and its ability to hydrolyse acetylthiocholine assessed as described above (in vitro experiments), in comparison with the enzyme removed from mice injected with normal saline.

[4] = system: respiratory depressant effects of morphine; assay type: in vivo; conditions: rabbits, depending on drug and dose
Procedure: Different doses of the carbamate compounds were injected intravenously with morphine in rabbits Respiration rate, arterial blood gas tensions and pH were monitored continuously before and after drug administration for 4-5 hours. In another series of experiments the effect of the anticholinesterase drugs was assessed on the analgesic effect of opiates in rabbits after application of a nociceptive stimulus, i.e. electrical stimulation of the sciatic nerve.

[5] = Degree of protection afforded by pretreatment with atropine, ratio of LD50 after pretreatment with atropine sulphate 5 mg/kg to LD50 of drug alone
[6] = Ratio whose head is drawing 10 (Table 3; oral LD50 compared with s.c. LD50), mice, oral versus s.c.
[7] = sc, Therapeutic ratio LD50/ED50 s.c., mice, ED50 = dose inhibiting brain acetylcholinesterase by 50%
[8] = incubation of enzyme with inhibitor, 37° C.
[9] = parenteral administration, in words

| SMILES | absorption from the gastro-intestinal tract compared with physostigmine [1] | protection by atropine against lethality ([1]; mice, in words) | selectivity ratio [1, 5] | selectivity ratio [1, 6] | LD50 at 3 h ([1]; sc) [µmol/kg] | selectivity ratio [1, 7] | IC50 [2] [nM] | Time of peak activity [2, 8] [min] | duration of significant brain enzyme inhibition (>30%) ([3]; at ED50 dose) | Relative potency to physostigmine after oral administration [3] | % cholinesterase inhibition 3 hours after s.c. administration [3] [%] | Relative potency to physostigmine after subcut. (s.c.) administration [3] | duration of brain acetylcholinesterase inhibition compared with physostigmine or miotine [3, 9] | duration of significant antagonism of the respiratory depressant effects of morphine [4] [h] | relative in vivo activity compared to physostigmine versus in vitro data [3] | other results |
| --- | --- | --- | --- | --- | --- | --- | --- | --- | --- | --- | --- | --- | --- | --- | --- | --- |
| CCCN(C)C(=O)Oc1cccc(C(C)N(C)C)c1 (stereo not drawn) [RA4, N-methyl, N-propyl-3[1-(dimethylamino)ethyl]phenyl carbamate] | more efficiently absorbed from the gastro-intestinal tract than is physostigmine | considerably greater protection | 4.9 | 1.7 | 72 | 10 | 1700 | 60 | more than 3 hours | 29 | 25 | 13 | significantly longer duration |  |  | bioavailability after oral administration compared with physostigmine ([3]; in words): better bioavailability after oral administration than physostigmine |
| CCN(C)C(=O)Oc1cccc(C(C)N(C)C)c1 (stereo not drawn) [RA7, N-ethyl, N-methyl-3[1-(dimethylamino)ethyl]phenyl carbamate] | more efficiently absorbed from the gastro-intestinal tract than is physostigmine | considerably greater protection |  |  | 46 |  |  |  |  |  |  |  |  |  |  | Time of peak activity [2]: 90 min; brain enzyme inhibition after 7 hours ([3]; mouse, in vivo): 36%; duration of brain acetylcholinesterase inhibition compared with physostigmine or miotine ([3]; mouse, in vivo): significantly longer duration; duration of significant brain enzyme inhibition (>30%) ([3]; mouse, in vivo): more than 3 hours |
| CC(C)NC(=O)Oc1cccc(C(C)N(C)C)c1 (stereo not drawn) [RA13] | more efficiently absorbed from the gastro-intestinal tract than is physostigmine | considerably greater protection | 4.5 | 1.1 | 65 | 1.6 | 12000 | 120 |  | 5 |  | 2 |  |  |  |  |
| CCNC(=O)Oc1cccc(C(C)N(C)C)c1 (stereo not drawn) [RA6, N-ethyl-3[1-(dimethylamino)ethyl]phenyl carbamate] | more efficiently absorbed from the gastro-intestinal tract than is physostigmine |  | 2.6 | 2.1 | 96 | 11.9 | 400 | 120 | more than 3 hours | 19 | 35 | 11 | significantly longer duration | 3 to 5 | relatively more active in vivo compared to physostigmine than one would expect from the in vitro data | brain enzyme inhibition after 7 hours ([3]; at ED50 dose, 7 hours): 36%; bioavailability after oral administration compared with physostigmine ([3]; in words): better bioavailability after oral administration than physostigmine |
| CC(c1cccc(OC(=O)N(C)C)c1)N(C)C (stereo not drawn) [RA10] |  | considerably greater protection | 5 | 9.7 | 14 | 12.7 | 27 | 120 |  | 92 | 7 | 81 |  | 3 to 5 | relatively more active in vivo compared to physostigmine than one would expect from the in vitro data | therapeutic ratio (safety margin) compared with physostigmine ([1]; mice, s.c., in words): significantly higher than of physostigmine |
| C=CCNC(=O)Oc1cccc(C(C)N(C)C)c1 (stereo not drawn) [RA14, N-allyl-3-[1-(dimethylamino)ethyl]phenyl carbamate] |  | considerably greater protection | 8 | 4.4 | 69 | 11.5 | 430 | 120 | more than 3 hours | 22 | 35 | 15 | significantly longer duration | 3 to 5 | relatively more active in vivo compared to physostigmine than one would expect from the in vitro data | selectivity ratio ([1]; decrease of acute toxicity (lethality) by the antidote atropine, mice, atropine): > 8 |
| CCCCNC(=O)Oc1cccc(C(C)N(C)C)c1 (stereo not drawn) [RA5, N-butyl-3-[1-(dimethylamino)ethyl]phenyl carbamate] |  | considerably greater protection | 5.8 | 5 | 19 | 7.6 | 76 | 120 | more than 3 hours | 29 | 30 | 36 | significantly longer duration |  | relatively more active in vivo compared to physostigmine than one would expect from the in vitro data |  |
| CCN(CC)C(=O)Oc1cccc(C(C)N(C)C)c1 (stereo not drawn) [RA8, N,N-diethyl-3-[1-(dimethylamino)ethyl]phenyl carbamate] |  |  |  |  | > 568 | > 10 | 35000 | 30 | more than 3 hours | 5 | 32 | 2 | significantly longer duration |  | relatively more active in vivo compared to physostigmine than one would expect from the in vitro data | ED50 after oral administration compared with S.C. injection ([3]; oral versus s.c.): the same as that after S.C. injection |
| CC(c1cccc(OC(=O)NC2CCCCC2)c1)N(C)C (stereo not drawn) [RA12] |  |  | 3.8 | 3.6 | 42 | 5.8 | 93 | 120 | more than 3 hours | 17 | 37 | 13 |  |  |  |  |
| CC(c1cccc(OC(=O)N2CCOCC2)c1)N(C)C (stereo not drawn) [RA11] |  |  |  |  |  |  | > 20000 | 30 |  |  |  |  |  |  |  |  |
